Earlier results on 51 compounds are cited in the CATMoS acute toxicity set (Mansouri et al. 2021).

Usually LD50 stands for the dose expected to kill half of the subjects tested.

Where “and” joins values, the source holds several entries; their conditions need not be identical. Equal entries are not always repeated.

The nature of the data set: rat acute oral toxicity. Particulars: in vivo. An excerpt: […]The data set underlying the modeling effort for this project was initially compiled by NICEATM and U.S. EPA’s CCTE. Briefly, LD50 data were collected from rat acute oral systemic toxicity tests, including limit tests, ranges/confidence intervals, and discrete LD50 values. The full data set included 21,200 LD50 entries for 15,688 substances. […] Data were reviewed to ensure that LD50 values with obvious errors in the extracted data such as unit conversion errors (e.g., comma and decimal separator misplacements) were either fixed or removed. After this review, 16,209 LD50 values remained. Many of the chemicals represented had multiple LD50 entries, requiring that a single representative value per Chemical Abstracts Service Registry Number (CASRN) identifier be defined to facilitate modeling efforts. Based on ATWG feedback and to define the representative LD50 as a protective value while accounting for the distribution across multiple LD50s, the median of the lowest quartile was computed using only discrete LD50 values (omitting limit test data and range and confidence interval data). A detailed summary of the data compilation is available online on the NICEATM webpage dedicated to the collaborative modeling project (NTP 2020).
[…][…] For categorical designations, limit test and range/confidence interval LD50 data were integrated wherever possible. As such, the number of chemicals with end point values/calls varies across the modeling end points (Table 3) based on whether chemicals had representative LD50 values and/or other data. If a chemical had both, the representative value was used to determine categorical calls rather than limit test data. Some data were useable only for certain end points and categories depending on the thresholds. For example, ranges that spanned multiple hazard categories were considered only for the binary (very toxic/nontoxic) end points and omitted from rendering a determination for hazard category assignment.
[…]The final data set comprising 11,992 chemicals was split into training and evaluation sets […], respectively. This process was performed semirandomly by ordering chemicals based on the five end points (categorical and continuous LD50 values) and partitioning every fourth record into the evaluation set accordingly. This approach was taken to ensure an equivalent distribution of the LD50 values and the different hazard categories between the training and the evaluation sets without supervised sampling of the chemicals based on structures (Figure 1A). The sources of the chemical structures were also kept equivalent between the two sets, with chemical structures obtained from DSSTox, being the highest quality, representing over 75% of each set (Figure 1B).
For `C[N+]1(CC2COC(c3ccccc3)(c3ccccc3)O2)CCCCC1` (stereo unspecified), the LD50 was 1820 mg/kg.
Turning to `Clc1ccc(C(Cn2ccnc2)OCc2ccsc2Cl)c(Cl)c1` (stereo unspecified), the LD50 is 770 mg/kg.
In the case of `c1ccc(C2CCCCC2)c(OCC2CNCCO2)c1` (stereo unspecified), the LD50 is 1120 mg/kg.
As for `NC(Cc1ccc(N(CCCl)CCCl)cc1)C(=O)O` (stereo unspecified), the median lethal dose (LD50) is 52 mg/kg and 105 mg/kg.
Turning to `Fc1c(Cl)ccc2[nH]c(C(F)(F)F)nc12`, the LD50 is 5.72 mg/kg.
Regarding `O=C(O)C1CCc2cc(C3CCCCC3)ccc21` (stereo unspecified), the median lethal dose (LD50) was 287 mg/kg and 230 mg/kg.
Consider `OCCC(F)(F)C(F)(F)C(F)(F)C(F)(F)C(F)(F)C(F)(F)F`, for which the LD50 was 1750 mg/kg.
Regarding `CCCC(=O)c1ccc2c(c1)N(CCCN(C)C)c1ccccc1S2`, the LD50 is 300 mg/kg.
Turning to `CC(C)c1ccc(C(C)(C)O)cc1`, the 50% lethal dose (LD50) was 11300 mg/kg.
In the case of `CCCCC(CC)COCCO` (stereo unspecified), the median lethal dose (LD50) is 3080 mg/kg.
As to `Cc1cc(Cl)ccc1OC(C)C(=O)N(C)C` (stereo unspecified), the 50% lethal dose (LD50) is 800 mg/kg.
For `CC(=O)N1CCOCC1`, the 50% lethal dose (LD50) was 6130 mg/kg.
Take `COc1ccc2c(c1)OC(C)(C)C(c1ccccc1)C2c1ccc(OCC2CO2)cc1` (stereo unspecified): the LD50 was 800 mg/kg.
As to `CCCCCCCCCCCCCCCCCC1=NC(C)CC(C)(C)N1` (stereo unspecified), the 50% lethal dose (LD50) was 493 mg/kg.
For `COC(=O)[C@H](C)N(OC)c1c(C)cccc1C`, the LD50 was 566 mg/kg.
With `S=C1N=CC=NC(=S)SSSS1`, the LD50 is 8530 mg/kg.
`CCC(Cl)Cl`: the LD50 is 6500 mg/kg.
For the compound `Cc1cc(O)ccc1[N+](=O)[O-]`, the LD50 was 1200 mg/kg.
With `CN(C)S(=O)(=O)CCCCNC(=O)N(CCCl)N=O`, the LD50 was 250 mg/kg.
As for `CCCOC(=O)CCC(=O)OCCC`, the 50% lethal dose (LD50) is 6490 mg/kg.
For `CCC1CC2CC3c4[nH]c5ccc(OC)cc5c4CCN(C2)C13` (stereo unspecified), the LD50 was 482 mg/kg.
For the compound `CCOC(=O)C1(c2ccccc2)CCN(CCOCc2ccccc2)CC1`, the median lethal dose (LD50) is 284 mg/kg.
Regarding `CCN(C(C)=O)c1c(I)cc(I)c(OCCOC(C)C(=O)O)c1I` (stereo unspecified), the 50% lethal dose (LD50) is 1600 mg/kg.
For `CC1(C(=O)O)C2CCC(O2)C1C(=O)O` (stereo unspecified), the 50% lethal dose (LD50) was 50 mg/kg.
For `O=C(CCCN1CCN(C(=O)OC2CCCCC2)CC1)c1ccc(F)cc1`, the LD50 is 1080 mg/kg.
As to `CCCCCCCCCCCCCCOC(=O)Cc1ccc(N(CCCl)CCCl)cc1`, the 50% lethal dose (LD50) is 46 mg/kg.
For `CC(C)OP(=S)(OC(C)C)SCn1nc(-c2ccccc2)ccc1=O`, the LD50 is 25000 mg/kg.
On to `CCN(CC)CCNC(=O)c1cc([N+](=O)[O-])c(N(C)C)cc1OC`, for which the LD50 was 856 mg/kg.
As to `CCCCC[C@H](O)/C=C/[C@H]1[C@H](O)CC(=O)[C@@H]1C/C=C\CCCC(=O)O`, the LD50 was 500 mg/kg.
With `COc1cc(C2c3cc4c(cc3C(OC3OC5COC(c6ccccc6)OC5C(O)C3O)C3COC(=O)C23)OCO4)cc(OC)c1O` (stereo unspecified), the LD50 is 823 mg/kg.
As for `CN1C(=O)CN=C(c2ccccc2F)c2c1ccc(NC(=O)N1CCOCC1)c2Cl`, the LD50 is 1250 mg/kg.
`COc1ccc2c(c1)c(CC(=O)Oc1ccc(NC(C)=O)cc1)c(C)n2C(=O)c1ccc(Cl)cc1`: the 50% lethal dose (LD50) is 887 mg/kg.
Regarding `Clc1cc2c(c(Cl)c1Cl)Oc1c(Cl)c(Cl)c(Cl)c(Cl)c1O2`, the LD50 is 6.33 mg/kg.
As for `O=C(O)CCCCC(=O)O`, the LD50 was 7900 mg/kg and 10000 mg/kg.
Turning to `CC1(C(=O)O)CC=CCC1` (stereo unspecified), the 50% lethal dose (LD50) is 2140 mg/kg.
For `c1ccc2c(c1)Sc1ccccc1N2CCCN1CCOCC1`, the 50% lethal dose (LD50) is 1000 mg/kg.
In the case of `CCN(C)CCC(CC=C(C)C)(C(N)=O)c1cccc2ccccc12` (stereo unspecified), the LD50 is 71 mg/kg.
`Cc1cc(O)c(C)c(C)c1O`: the LD50 was 3200 mg/kg.
In the case of `CSc1ncnc2c1ncn2C1OC(CO)C(O)C1O` (stereo unspecified), the LD50 is 214 mg/kg.
For `Nc1ccc2c3c([nH]c2c1)CCCC3`, the LD50 is 290 mg/kg.
With `COP(=O)(OC)O/C(=C\Cl)c1ccc(Cl)cc1Cl`, the LD50 is 97.5 mg/kg.
`CN(C(O)=NC(C)(C)c1ccccc1)c1ccccc1`: the median lethal dose (LD50) was 6130 mg/kg.
Consider `CC1(C)CNC(=NN=C(/C=C/c2ccc(C(F)(F)F)cc2)/C=C/c2ccc(C(F)(F)F)cc2)NC1`, for which the 50% lethal dose (LD50) is 1130 mg/kg.
Regarding `C=CN(C(C)=O)c1ccccc1`, the LD50 was 2460 mg/kg.
`CC(=O)OCC(C)OC(C)=O` (stereo unspecified): the median lethal dose (LD50) was 13500 mg/kg.
Take `OC[C@@H](O)CN1CCN(c2ccccc2)CC1`: the median lethal dose (LD50) was 887 mg/kg.
`CCS(=O)CCSP(=S)(OC)OC` (stereo unspecified): the LD50 was 100 mg/kg.
For `COc1ccc(N2CCN(CCCN(C)C)CC2)cc1`, the median lethal dose (LD50) was 787 mg/kg.
As to `CCCCCCOCCOC(=O)CCC(=O)OCCOCCCCCC`, the LD50 was 4280 mg/kg.
`C=CC(CCCCC)OC(C)=O` (stereo unspecified): the median lethal dose (LD50) was 850 mg/kg.
In the case of `CC(=O)N[C@@H](CC(C)C)C(=O)N[C@@H](CC(C)C)C(=O)N[C@H](C=O)CCCNC(=N)N`, the LD50 was 720 mg/kg.
